Like-named read-outs stand apart in the source and are kept apart here.
Assays:
[1] = system: poly(ADP-ribose) polymerase (PARP); test: PARP degradation by Western blot in N2A cells; type: cell-based, Mouse; details: 24 hours
Procedure: Induction of Apoptosis: As we mentioned previously that cancer cells probably have two options after arrest at G1 phase, i.e. differentiation or apoptosis. […] The cells were harvested, washed and DNA extracted. Approximately 2 μg per lane of DNA were subjected to 2% agarose gel electrophoresis. […] The cells were harvested, washed, and total proteins extracted for determination of PARP degradation by Western blotting as described previously. Upper panels (A & B) are imagines from ECL films, and lower panels (A′ & B′) are densities of the corresponding bands measured by an Imagine Densitometer (expressed as the percent of control).

[2] = system: PC-3; test: Growth inhibition by MTT, PC-3 prostate cancer cells; type: cell-based, Human; details: Homo sapiens, PC-3; MTT, 72 h exposure; read-out: IC50 PC-3
Procedure: (§1) Growth inhibitory effects of NATURA and other agents on human cancer cells were determined by standard MTT (3-(4,5-dimethylthiazol-2-yl)-2,5-diphenyltetrazolium bromide Test) as described previously. Briefly, cancer cells grown exponentially were aliquoted into 96-well plates at a density of 5000 cells/200 μl per well in RPMI 1640 medium containing 10% FBS overnight. The cells in the plates were then exposed to series of dilution of indicated agent. After 72 h of incubation, 100 μl of the medium was removed from each of the wells and 50 μl of a 1 mg/ml solution of 3-(4,5-dimethylthiazol-2-yl)-2,5-diphenyltetrazolium bromide (MTT) was added to each well and the cells were incubated for additional 4 h. 200 μl of solution of 0.04 N HCl-isopropanol was added to each well to dissolve the black fromazan participates, and absorbance at 540 nm was measured on a 96-Well.

[3] = system: LNCaP; test: Growth inhibition by MTT, LNCaP prostate cancer cells; type: cell-based, Human; details: Homo sapiens, LNCaP
Procedure: as §1, with “Briefly, cancer cells grown exponentially were aliquoted into 96-well plates at a density of 5000 cells/200 μl per well in RPMI 1640 medium containing 10% FBS overnight.” left out
(§2) The cells in the plates were then exposed to series of dilution of indicated agent. After 72 h of incubation, 100 μl of the medium was removed from each of the wells and 50 μl of a 1 mg/ml solution of 3-(4,5-dimethylthiazol-2-yl)-2,5-diphenyltetrazolium bromide (MTT) was added to each well and the cells were incubated for additional 4 h. 200 μl of solution of 0.04 N HCl-isopropanol was added to each well to dissolve the black fromazan participates, and absorbance at 540 nm was measured on a 96-Well Microplate Reader. Each experiment was repeated at least three times.

[4] = in vivo; details: for DFP (Frequency of Death): mice, oral, two weeks
Procedure: The animals were given Meisoindigo suspension orally at dosage of 0, 1.85, 2.60, 3.60, 5.10, 7.14, and 10.00 g/kg respectively. The animals were tested for two weeks, and the LD50 was measured using modified Bliss method as follows.
LD50 was calculated using following equation: LD50=log^−1 [Xm−i(ΣDFP−0.5)]
Here, Xm is the maximal frequency of death, Xm=I in this case; i is the distance of group. It is determined by following equation, in this case r=1.4 i=log 1/r=0.146

[5] = system: SKBR-3; test: Growth inhibition by MTT, SKBR-3 breast cancer cells; type: cell-based, Human; details: Homo sapiens, read-out: IC50 SKBR-3
Procedure: as §1

[6] = system: DLD-1; test: Growth inhibition by MTT, DLD-1 colon cancer cells; type: cell-based, Human; details: Homo sapiens, DLD-1, 72 h exposure
Procedure: as §1
as §2, with “FIGS. 3-5 show the anticancer affects of NATURA in MCF-7 breast cancer cells, DLD-1 colon cancer cells, and LNCaP hormone-dependent prostate cancer cells. The cancer cells grown exponentially were aliquoted into 96-well plates at a density of 5000 cells/200 μl per well in RPMI 1640 medium containing 10% fetal bovine serum (FBS) overnight. The” for “The”

[7] = system: human cancer cell lines; test: Growth inhibition by MTT, all tested human cancer cell lines; type: cell-based; details: Homo sapiens, 72 h, read-out: IC50, growth inhibitory effects on all tested human cancer cell lines, range over breast, colon, prostate lines, three day exposure
Procedure: as §1

[8] = system: Walker 256; test: Anticancer activity against Walker 256 sarcoma
Procedure: Anticancer activity against Walker 256: Wistar rats with body weights between 50 to 55 grams, were randomly divided into several groups, ten of each, respectively. Approximately 2×10^6 of the Walker sarcoma cells were transplanted into a Wistar rat. Twenty-four hours after the transplantation, equal molar dosage (0.384 mM/kg) of NATURA or other sugar derivatives were given orally for 10 days. The animals in the control group were given 0.1 ml saline (drug vehicle, negative control) for the same periods of time as treated group. Twenty-four hours after the last administration, the animals were sacrificed and tumors were removed and weighed.
Briefly, C57 mice, body weight between 18 to 22 grams, and rat, body weight between 50 to 55 grams, were randomly divided into several groups, ten of each, respectively. Approximately 2×10^6 of Lewis cancer cells or Walker sarcoma cells were transplanted into mice or rat. […] The animals in the control group were given 0.1 ml saline (drug vehicle, negative control) for the same periods of time as treated group. The animals at end of the treatment were sacrificed and tumors were removed and weighed.
In order to assess the anticancer activities of NATURA and other sugar derivatives, Wistard rats transplanted with W256 were given the same molar of the tested compounds (0.384 mM/kg) for the same period of time (10 days).

[9] = system: LOVO; test: Growth inhibition by MTT, LOVO colon cancer cells; type: cell-based, Human; details: Homo sapiens, LoVo; MTT, 72 h exposure; read-out: IC50 LOVO
Procedure: as §1

[10] = MTT, 72 h exposure (Table 3), read-out: IC50 LNCaP
[11] = Walker 256, rat, oral, Indirubin 100 × 9, Meisoindigo 106 × 9 mg/kgxd

SMILES: CC(=O)OC1COC(N2C(=O)/C(=C3/C(=O)Nc4ccccc43)c3ccccc32)C(OC(C)=O)C1OC(C)=O [NATURA, 1-(β-D-O-Triacetyl-xylopyranosyl)-isoindigo]
- PARP protein degradation [1]: strong induction
- IC50 [2]: 2.41 ± 0.39 µM
- IC50 [3, 10]: 1.72 ± 0.27 µM
- IC50 ([3]; Table 10, read-out: IC50 in LNCaP cells (NATURA and its derivatives)): 1.72 µM
- LD50 at 2 weeks ([4]; Kuan Ming, mouse, in vivo, po): 7330 ± 1150 mg/kg
- IC50 ([5]; SK-BR-3, MTT, 72 h exposure): 1.71 ± 0.14 µM
- IC50 [6]: 1.64 ± 0.181 µM
- IC50 [7]: 1.64 to 6.92 µM
- Percent of Inhibition against Walker 256 ([8]; Wistar rats, 0.384 mM/kg orally for 10 days): 77%
- Percent of Inhibition against Walker 256 ([8]; Wistar rats, 0.384 mM/kg orally for 10 days; listed as Xyl-Ac*NATURA)): 77.5%
- IC50 [9]: 4.31 ± 0.59 µM

SMILES: CN1C(=O)/C(=C2/C(=O)Nc3ccccc32)c2ccccc21 [Meisoindigo]
- PARP protein degradation [1]: strong induction
- IC50 [2]: 3.26 ± 0.51 µM
- IC50 [3, 10]: 2.34 ± 0.33 µM
- Unit of DF ([4]; Dose 1.86 g/kg): 2.674
- [DF]^2P^2 ([4]; Dose 1.86 g/kg): 0
- LD50 at 2 weeks ([4]; Kuan Ming, mouse, in vivo, po): 3900 ± 800 mg/kg
- LD50 ([4]; Kuan Ming, mouse, in vivo, po, 2 weeks): 3900 ± 800 mg/kg
- DFP (Frequency of Death) ([4]; Dose 1.86 g/kg): 0
- DFP (Frequency of Death) ([4]; Dose 2.60 g/kg): 0.20
- DFP (Frequency of Death) ([4]; Dose 3.60 g/kg): 0.60
- DFP (Frequency of Death) ([4]; Dose 5.10 g/kg): 0.70
- DFP (Frequency of Death) ([4]; Dose 7.14 g/kg): 0.80
- DFP (Frequency of Death) ([4]; Dose 10.00 g/kg): 1.00
- IC50 ([5]; SK-BR-3, 72 h): 2.17 ± 0.17 µM
- IC50 [6]: 2.15 ± 0.17 µM
- IC50 [7]: 2.15 to 8.31 µM
- Inhibition (%) [8, 11]: 71.6 ± 3.1%
- Tumor Size X ± SD [8, 11]: 2.10 ± 0.17
- IC50 [9]: 5.76 ± 0.72 µM
